Measurements as given in patent US9777002B2, “Inhibitors of the renal outer medullary potassium channel” (Merck Sharp & Dohme Corp., priority 2012, dated 2017).

Molecular target: T1, hROMK (hKir1.1) (Homo sapiens, UniProt P48048)
T1 construct: expressed in transfected cells
T1 sequence (P48048 1-391): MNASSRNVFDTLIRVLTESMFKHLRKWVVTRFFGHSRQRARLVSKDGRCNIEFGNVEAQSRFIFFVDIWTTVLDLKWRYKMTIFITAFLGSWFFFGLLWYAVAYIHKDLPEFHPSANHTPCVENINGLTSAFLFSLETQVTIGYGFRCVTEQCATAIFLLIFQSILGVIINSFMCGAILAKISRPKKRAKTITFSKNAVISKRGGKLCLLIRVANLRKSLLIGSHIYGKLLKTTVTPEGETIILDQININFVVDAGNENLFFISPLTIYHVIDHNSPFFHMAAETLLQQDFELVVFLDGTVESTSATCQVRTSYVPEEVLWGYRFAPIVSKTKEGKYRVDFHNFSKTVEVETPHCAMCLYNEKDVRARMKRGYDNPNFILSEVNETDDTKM
Test: Thallium Flux Assay
Assay type: cell-based
Conditions: HEK293 cells stably expressing hROMK (hKir1.1)
How it was run: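 HEK293 cells stably expressing hROMK were loaded with FluxOR dye for 90 min, then incubated with compound in probenecid assay buffer plus 0.3 mM ouabain, pH 7.4, for 30 min at 23-25 °C. Flux was triggered with 3 mM thallium/0.3 mM potassium (final) and read on FLIPR-Tetra for ~10 min. IC50 was calculated against the signal blocked by 3 μM control inhibitor.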

Row | Compound | IC50 [nM]
1 | Cc1c([C@@H](O)CN2CCC(CNC(=O)c3ccc(-n4cnnn4)cn3)(c3ccccc3)C2)ccc2c1COC2=O (stereo partly drawn) [Example 68, N-((1-((R)-2-Hydroxy-2-(4-methyl-1-oxo-1,3-dihydroisobenzofuran-5-yl)ethyl)-3-phenylpyrrolidin-3-yl)methyl)-5-(1H-tetrazol-1-yl)picolinamide] | 630
2 | Cc1c([C@@H](O)CN2CCC(C)(NC(=O)c3cnc(-n4cnnn4)cn3)CC2)ccc2c1COC2=O [Example 72, (R)-N-(1-(2-Hydroxy-2-(4-methyl-1-oxo-1,3-dihydroisobenzofuran-5-yl)ethyl)-4-methylpiperidin-4-yl)-5-(1H-tetrazol-1-yl)pyrazine-2-carboxamide] | 80
3 | Cc1c([C@@H](O)CN2CCC(NC(=O)c3ccc(-c4nccs4)cc3)CC2)ccc2c1COC2=O [Example 75, (R)-N-(1-(2-Hydroxy-2-(4-methyl-1-oxo-1,3-dihydroisobenzofuran-5-yl)ethyl)piperidin-4-yl)-4-(thiazol-2-yl)benzamide] | 390
4 | Cc1c([C@@H](O)CN2C3CCC2CC(NC(=O)c2ccc(-n4cnnn4)cn2)C3)ccc2c1COC2=O (stereo partly drawn) [Example 76, N-(8-((R)-2-Hydroxy-2-(4-methyl-1-oxo-1,3-dihydroisobenzofuran-5-yl)ethyl)-8-azabicyclo[3.2.1]octan-3-yl)-5-(1H-tetrazol-1-yl)picolinamide] | 430
5 | Cc1c([C@@H](O)CN2CCC(C)(NC(=O)c3ccc4nonc4c3)CC2)ccc2c1COC2=O [Example 77, (R)-N-(1-(2-Hydroxy-2-(4-methyl-1-oxo-1,3-dihydroisobenzofuran-5-yl)ethyl)-4-methylpiperidin-4-yl)benzo[c][1,2,5]oxadiazole-5-carboxamide] | 530
6 | Cc1c([C@@H](O)CN2C3CCC2CC(NC(=O)c2ccc(-n4cnnn4)nc2)C3)ccc2c1COC2=O (stereo partly drawn) [Example 82, N-(8-((R)-2-Hydroxy-2-(4-methyl-1-oxo-1,3-dihydroisobenzofuran-5-yl)ethyl)-8-azabicyclo[3.2.1]octan-3-yl)-6-(1H-tetrazol-1-yl)nicotinamide] | 250
7 | Cc1c([C@@H](O)CN2CCCC(C)(CNC(=O)c3ccc(-n4cnnn4)nc3)C2)ccc2c1COC2=O (stereo partly drawn) [Example 83, N-((1-((R)-2-Hydroxy-2-(4-methyl-1-oxo-1,3-dihydroisobenzofuran-5-yl)ethyl)-3-methylpiperidin-3-yl)methyl)-6-(1H-tetrazol-1-yl)nicotinamide] | 720
8 | Cc1c([C@@H](O)CN2CCC(C)(CNC(=O)c3ccc(-n4cnnn4)nc3)C2)ccc2c1COC2=O (stereo partly drawn) [Example 84, N-((1-((R)-2-Hydroxy-2-(4-methyl-1-oxo-1,3-dihydroisobenzofuran-5-yl)ethyl)-3-methylpyrrolidin-3-yl)methyl)-6-(1H-tetrazol-1-yl)nicotinamide] | 190
9 | Cc1c([C@@H](O)CN2CCC(CNC(=O)c3ccc4nonc4c3)C2)ccc2c1COC2=O (stereo partly drawn) [Example 89, N-((1-((R)-2-Hydroxy-2-(4-methyl-1-oxo-1,3-dihydroisobenzofuran-5-yl)ethyl)pyrrolidin-3-yl)methyl)benzo[c][1,2,5]oxadiazole-5-carboxamide] | 260

Other lines, results leading:

Row | IC50 [nM] | Compound
10 | 220 | Cc1c([C@@H](O)CN2CCC(NC(=O)c3ccc4nonc4c3)CC2)ccc2c1COC2=O [Example 66, (R)-N-(1-(2-Hydroxy-2-(4-methyl-1-oxo-1,3-dihydroisobenzofuran-5-yl)ethyl)piperidin-4-yl)benzo[c][1,2,5]oxadiazole-5-carboxamide]
11 | 360 | Cc1c([C@@H](O)CN2CCCC(C)(CNC(=O)c3ccc(-n4cnnn4)cn3)C2)ccc2c1COC2=O (stereo partly drawn) [Example 67, N-((1-((R)-2-Hydroxy-2-(4-methyl-1-oxo-1,3-dihydroisobenzofuran-5-yl)ethyl)-3-methylpiperidin-3-yl)methyl)-5-(1H-tetrazol-1-yl)picolinamide]
12 | 760 | Cc1c([C@@H](O)CN2CCC(C3(NC(=O)c4ccc(-n5cnnn5)cn4)CCC3)C2)ccc2c1COC2=O (stereo partly drawn) [Example 70, N-(1-(1-((R)-2-Hydroxy-2-(4-methyl-1-oxo-1,3-dihydroisobenzofuran-5-yl)ethyl)pyrrolidin-3-yl)cyclobutyl)-5-(1H-tetrazol-1-yl)picolinamide]
13 | 280 | Cc1c([C@@H](O)CN2CCC(C)(NC(=O)c3ccc(-n4cnnn4)nn3)CC2)ccc2c1COC2=O [Example 71, (R)-N-(1-(2-Hydroxy-2-(4-methyl-1-oxo-1,3-dihydroisobenzofuran-5-yl)ethyl)-4-methylpiperidin-4-yl)-6-(1H-tetrazol-1-yl)pyridazine-3-carboxamide]
14 | 270 | Cc1c([C@@H](O)CN2CCC(NC(=O)c3ccc(-n4cccn4)nc3)CC2)ccc2c1COC2=O [Example 73, (R)-N-(1-(2-Hydroxy-2-(4-methyl-1-oxo-1,3-dihydroisobenzofuran-5-yl)ethyl)piperidin-4-yl)-6-(1H-pyrazol-1-yl)nicotinamide]
15 | 630 | Cc1c([C@@H](O)CN2CCC(NC(=O)c3ccc(-n4cncn4)cc3)CC2)ccc2c1COC2=O [Example 74, (R)-N-(1-(2-Hydroxy-2-(4-methyl-1-oxo-1,3-dihydroisobenzofuran-5-yl)ethyl)piperidin-4-yl)-4-(1H-1,2,4-triazol-1-yl)benzamide]
16 | 560 | Cc1cc(C(=O)NC2CCN(C[C@H](O)c3ccc4c(c3C)COC4=O)CC2)ccc1-n1cnnn1 [Example 78, (R)-N-(1-(2-Hydroxy-2-(4-methyl-1-oxo-1,3-dihydroisobenzofuran-5-yl)ethyl)piperidin-4-yl)-3-methyl-4-(1H-tetrazol-1-yl)benzamide]
17 | 370 | Cc1c([C@@H](O)CN2CCC(NC(=O)c3ccc(-n4cnnn4)c4ncccc34)CC2)ccc2c1COC2=O [Example 79, (R)-N-(1-(2-Hydroxy-2-(4-methyl-1-oxo-1,3-dihydroisobenzofuran-5-yl)ethyl)piperidin-4-yl)-8-(1H-tetrazol-1-yl)quinoline-5-carboxamide]
18 | 970 | Cc1c([C@@H](O)CN2CCCC(C(C)(C)NC(=O)c3ccc(-n4cnnn4)nc3)C2)ccc2c1COC2=O (stereo partly drawn) [Example 80, N-(2-(1-((R)-2-Hydroxy-2-(4-methyl-1-oxo-1,3-dihydroisobenzofuran-5-yl)ethyl)piperidin-3-yl)propan-2-yl)-6-(1H-tetrazol-1-yl)nicotinamide]
19 | 370 | Cc1cc(C(=O)NCC2CCN(C[C@H](O)c3ccc4c(c3C)COC4=O)C2)ncc1-n1cnnn1 (stereo partly drawn) [Example 85, N-((1-((R)-2-Hydroxy-2-(4-methyl-1-oxo-1,3-dihydroisobenzofuran-5-yl)ethyl)pyrrolidin-3-yl)methyl)-4-methyl-5-(1H-tetrazol-1-yl)picolinamide]
20 | 980 | Cc1c([C@@H](O)CN2CCC(CNC(=O)c3ccc(-n4cnnn4)cn3)C2)ccc2c1COC2=O (stereo partly drawn) [Example 86, N-((1-((R)-2-Hydroxy-2-(4-methyl-1-oxo-1,3-dihydroisobenzofuran-5-yl)ethyl)pyrrolidin-3-yl)methyl)-5-(1H-tetrazol-1-yl)picolinamide]
21 | 30 | Cc1c([C@@H](O)CN2CCC(N3Cc4cc([N+](=O)[O-])ccc4C3=O)CC2)ccc2c1COC2=O [Example 88, (R)-2-(1-(2-Hydroxy-2-(4-methyl-1-oxo-1,3-dihydroisobenzofuran-5-yl)ethyl)piperidin-4-yl)-5-nitroisoindolin-1-one]
22 | 130 | Cc1c([C@@H](O)CN2CCC(N3Cc4cc(-n5cnnn5)ccc4C3=O)CC2)ccc2c1COC2=O [Example 91, (R)-2-(1-(2-Hydroxy-2-(4-methyl-1-oxo-1,3-dihydroisobenzofuran-5-yl)ethyl)piperidin-4-yl)-5-(1H-tetrazol-1-yl)isoindolin-1-one]
